# “And” between values parts separate entries of the source, which are not always exact repeats. Identical values can stand only once.
# Tests used:
# ENL YEATS = target: T1, ENL YEATS (Homo sapiens, UniProt Q03111); assay: AlphaScreen assay with biotinylated ENL-S1 peptide; settings: inhibition of ENL YEATS binding to ENL-S1 peptide; mean ± SD, n = 3; read-out: Alpha IC50 (nM) for ENL YEATS
# T1 construct: final concentrations of 100 nM His-ENL YEATS, 100 nM Biotin-ENL-S1
# T1 sequence (Q03111 1-138 limits assumed): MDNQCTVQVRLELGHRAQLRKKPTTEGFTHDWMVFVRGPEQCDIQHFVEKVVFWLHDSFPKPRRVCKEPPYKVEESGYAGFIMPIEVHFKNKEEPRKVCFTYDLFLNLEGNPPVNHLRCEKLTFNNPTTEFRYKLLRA
# Description: The AlphaScreen assay was carried out in 384-well plates. Manual assay setup was performed in a 40 μL reaction buffer (50 mM HEPES pH 7.4, 100 mM NaCl, 0.1% bovine serum albumin, and 0.05% CHAPS) with final concentrations of 100 nM His-ENL YEATS, 100 nM Biotin-ENL-S1, and 20 μg/mL of AlphaScreen donor and acceptor beads. The protein, peptide, and compounds were mixed and incubated for 1 h at room temperature and then incubated for 30 min in dark after adding the α beads. AlphaScreen-signals were detected by a multimode microplate reader (BioTeK Synergy Neo2) equipped with an Alpha-laser (PerkinElmer).
# NLuc-ENL YEATS = target: T2, NLuc-ENL YEATS (Homo sapiens, UniProt Q03111); assay: ENL-NanoBRET inhibitor competitive assay; type: cell-based; settings: for IC50: HEK293T cells stably expressing NLuc-ENL YEATS, 1 μM Tracer 2, 2 h, mean ± SD, n = 3; for reduction in NanoBRET signal: concentrations up to 80 μM
# T2 construct: DNA encoding the ENL YEATS domain (aa 1–148) was cloned into an NLuc containing plasmid; expressed in transfected cells
# T2 sequence (Q03111 1-148): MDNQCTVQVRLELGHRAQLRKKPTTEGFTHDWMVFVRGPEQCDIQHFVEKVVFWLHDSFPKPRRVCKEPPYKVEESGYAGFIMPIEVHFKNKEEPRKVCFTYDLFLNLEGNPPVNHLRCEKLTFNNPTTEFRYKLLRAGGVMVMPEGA
# Description: Approximately 1.8 × 10^4 HEK293T cells (100 μL) stably expressing NLuc-ENL YEATS were seeded into a white nonbinding 96-well assay plate and incubated overnight at 37 °C in a humidified 5% CO2 atmosphere. After removal of the medium, the cells were added with a tracer (with or without excess of unlabeled compound) in the Opti-MEM with 0.1% DMSO. After incubation at 37 °C for 2 h the assay plate was equilibrated at room temperature for 15 min. For BRET detection, the NanoGlo Substrate and the extracellular NanoLuc inhibitor (Promega, N2160) were diluted with Opti-MEM as described in protocol to afford detection solution. 50 μL of the detection solution was added per well and the plate was incubated for 3 min at room temperature. The donor emission was measured at 450 nm and the acceptor emission at 610 nm using a BioTek SYNERGY neo2 multimode reader. The BRET ratio was calculated according to the following formula: BRET ratio = [(acceptorsample/donorsample) – (acceptorno-tracer control/donorno-tracer control)] × 1000.
# Sample procedures were followed for cell seeding as described in the previously described tracer affinity assay. After removal of the medium, the cells were added with a tracer in the medium (1.1 μM, 100 μL) and varied concentrations of a test compound in 0.1% DMSO (10 μL). The plate was thoroughly mixed on an orbital shaker for 15 s at 900 rpm. Then the cells were incubated at 37 °C, 5% CO2 for 2 h for BRET ratio detection as described previously.
# [1] = In vitro stability assay in human plasma; type: in vitro ADME; settings: 37 °C; for Plasma % of parent compound remaining (after 2h incubation): 5 μM, mean ± SD, n = 3
# Description: The in vitro stability analysis of a test compound was initiated by the addition of the test compound to 90 μL of prewarmed (37 °C) human plasma with a final concentration of 5 μM. All assays were performed in a plate shaker at 37 °C and conducted in triplicate. At 0, 5, 15, 30, 60, and 120 min, 400 μL acetonitrile (with the internal standard diclofenac as 10 μg/mL) was added to deproteinize the plasma and terminate the reaction, the remaining compound was then analyzed by HPLC-MS/MS.
# [2] = Log D at pH 7.4 (chromatographic procedure); type: physicochemical; settings: n-octanol / aqueous buffer pH 7.4, pH 7.4
# Description: Log D at 7.4, which is a partition coefficient between n-octanol and aqueous buffer pH 7.4 of the compounds was measured on the chromatographic procedure whose condition was developed based on a published method.[35]
# [3] = In vitro metabolic stability assay in HLM; type: in vitro ADME, human; settings: for half-life / half-life at 1 h: read-out: Liver Microsome t1/2; for parent compound remaining after 60 min incubation in HLM: in the presence of NADPH
# Description: At 0, 5, 15, 30, 45, and 60 min, 200 μL acetonitrile (with the internal standard diclofenac as 10 μg/mL) was added to terminate the reaction, the remaining compound was analyzed by HPLC-MS/MS.
# [4] = Cell toxicity assay (CCK-8), Jurkat; type: cell-based; settings: human, Jurkat cells; 8 day treatment, n = 3; read-out: CC50 Jurkat (Cellular IC50, 8-days incubation)
# Description: (§1) Approximately 1 × 10^4 JURKAT, MOLM-13, MV4-11 and HEK293T cells in RPMI 1640 (no phenol red) (100 μL) were added to a 96-well plate and treated with DMSO or a compound at indicated concentrations for 72 h or 8 days. Cell viability was measured using the CCK-8 kit (Abcam, ab228554) according to the manufacturer’s instructions.
# MV4-11 cells = assay: Anti-proliferation assay, MV4-11; type: cell-based; settings: 1 μM, approximately 2 weeks
# Description: (§2) Cell proliferation assays were carried out in a 96-well tissue culture plate at 2 × 10^4 cells/well for all cell lines except in 200 μL with a compound added as 1:1000 dilution of DMSO stocks in triplicate. Culture density was determined every 3–4 days using the countess automated cell counter, after which 2 × 10^4 live cells were reseeded in fresh media and compound. The cumulative cell count was achieved by back calculation.
# [5] = Cell toxicity assay (CCK-8), HEK293T; type: cell-based; settings: human, HEK293T cells; 72 h (3-days) treatment, n = 3; read-out: CC50 HEK293T (Cellular IC50, 3-days incubation)
# Description: as §1
# MOLM-13 cells [6] = assay: Anti-proliferation assay, MOLM-13; type: cell-based; settings: 1 μM, approximately 2 weeks
# Description: as §2
# [7] = Cell toxicity assay (CCK-8), MOLM-13; type: cell-based; settings: human, MOLM-13 cells, 8 day treatment, n = 3; read-out: CC50 MOLM-13 (Cellular IC50, 8-days incubation)
# Description: as §1
# MOLM-13 cells [8] = assay: Cell toxicity assay (CCK-8), MOLM-13; type: cell-based
# Description: as §1
# ENL YEATS domain = target: T3, ENL YEATS domain (Homo sapiens, UniProt Q03111); assay: Biolayer interferometry (BLI); type: binding; settings: biotinylated ENL YEATS on SSA biosensors, 1:1 model
# T3 construct: Biotinylated-ENL YEATS was immobilized onto SSA biosensors; biotin (biotinylated)
# T3 sequence (Q03111 1-138 limits assumed): T1 sequence (Q03111 1-138 limits assumed)
# Description: Superstreptavidin biosensors were first incubated in an assay buffer (20 mM Tris, pH 7.8, 300 mM NaCl, 0.05% Tween 20, 0.1% DMSO) for 15 min. Sensors were coated with 40–60 μg/mL of biotinylated ENL for 15 min at room temperature. Inhibitors were serially diluted across a 96-well plate in a volume of 200 μL. Association of samples to either ENL- or uncoated reference sensors was measured over 300 s and dissociation over 300 s with baseline measurements (buffer only) for 300 s. All assays were run with continuous 1000 rpm shaking. Data were analyzed using the OctetRED data analysis software with reference subtraction in which reference uncoated sensors and reference samples were subtracted. Then, global kinetic fit was performed for all sonogram curves with a 1:1 model to get KD values.
# [9] = Cell toxicity assay (CCK-8), MV4-11; type: cell-based; settings: human, MV4-11 cells, 8 day treatment, n = 3; read-out: CC50 MV4-11 (Cellular IC50, 8-days incubation)
# Description: as §1
# [10] = human, human liver microsomes, pH 7.4, HLM 0.5 mg/mL, NADPH 1 mM, mean ± SD, n = 3, read-out: Liver Microsome CLint, pred
# [11] = human, human liver microsomes, pH 7.4, HLM 0.5 mg/mL, NADPH 1 mM, mean ± SD, n = 3
IC50 (NLuc-ENL YEATS) [µM],Plasma % of parent compound remaining (after 2h incubation) [1],chromatographic logD [2],"CLint scaled at 1 h [3, 10] [mL/min/kg]","half-life at 1 h [3, 11] [h]",SMILES,also measured
–,–,–,–,–,"CC(C)[C@H]1CCN1Cc1ccc(CNC(=O)c2ccc3nncn3c2)cc1 [13 (R), (R)-N-(4-((2-Isopropylazetidin-1-yl)methyl)benzyl)-[1,2,4]triazolo[4,3-a]pyridine-6-carboxamide]",IC50 (ENL YEATS): 2260 nM
–,–,–,–,–,"CC(C)[C@@H]1CCN1Cc1ccc(CNC(=O)c2ccc3nncn3c2)cc1 [13 (S), (S)-N-(4-((2-isopropylazetidin-1-yl)methyl)benzyl)-[1,2,4]triazolo[4,3-a]pyridine-6-carboxamide]",IC50 (ENL YEATS): 970 nM
5.67,89.11 ± 6.07%,0.89,10.9,2.76 ± 0.639,"CC(C)[C@@H]1CCN1Cc1cc2cnc(NC(=O)c3ccc4nncn4c3)cc2[nH]1 [SR-C-107 (S), (S)-N-(2-((2-Isopropylazetidin-1-yl)methyl)-1H-pyrrolo[3,2-c]pyridin-6-yl)-[1,2,4]triazolo[4,3-a]pyridine-6-carboxamide]","half-life [3, 11]: 2.75 h; IC50 (ENL YEATS): 1380 nM"
1.48,90.77% and 90.77 ± 4.67%,0.82,8.69 ± 0.01,3.37 ± 0.421,CC(C)C1CCN1Cc1cc2cnc(NC(=O)c3ccc4nncn4c3)cc2[nH]1 (centres unmarked) [SR-C-107],"IC50 at 8 days [4]: > 64 µM; inhibition of MV4-11 cell proliferation (MV4-11 cells): strong inhibition of cell proliferation; IC50 at 72 h [5]: > 64 µM; inhibition of MOLM-13 cell proliferation (MOLM-13 cells [6]): strong inhibition of cell proliferation; IC50 at 8 days [7]: < 4 µM; IC50 (MOLM-13 cells [8]; 8 day treatment, n = 3, read-out: CC50 MOLM-13 (Cellular IC50, 8-days incubation)): 2.57 ± 0.28 µM; Kd (ENL YEATS domain): 565 nM; IC50 (ENL YEATS): 121 ± 28 nM"
2.36,82.54 ± 6.09%,0.13,3.51,8.29 ± 0.671,O=C(Nc1cc2[nH]c(CN3CCC3C3CC3)cc2cn1)c1ccc2nncn2c1 [YR-D-121],degradation after 2 h incubation in human plasma [1]: approximately 15%; IC50 at 8 days [4]: > 64 µM; IC50 at 72 h [5]: > 64 µM; IC50 at 8 days [7]: 6.96 µM; IC50 at 8 days [9]: 14.2 µM; Kd (ENL YEATS domain): 1340 nM; parent compound remaining after 60 min incubation in HLM [3]: over 90%
1.26,84.81 ± 6.84%,1.19,22.2 ± 4.76,1.34 ± 0.292,CSc1ccc(CNC(=O)c2ccc3nncn3c2)cc1 [inhibitor 1],degradation after 2 h incubation in human plasma [1]: approximately 15%; parent compound remaining after 60 min incubation in HLM [3]: about 60%
> 80,–,0.28,–,–,CN(C)Cc1ccc(CNC(=O)c2ccc3nncn3c2)cc1 [inhibitor 7],–
> 80,–,0.11,–,–,O=C(NCc1ccc(CN2CCCCC2)cc1)c1ccc2nncn2c1 [inhibitor 8],reduction in NanoBRET signal (NLuc-ENL YEATS): minimal reductions in NanoBRET signal
> 80,–,-0.1,–,–,O=C(NCc1ccc(CN2CCOCC2)cc1)c1ccc2nncn2c1 [inhibitor 9],reduction in NanoBRET signal (NLuc-ENL YEATS): minimal reductions in NanoBRET signal
–,–,0.17,–,–,O=C(NCc1ccc(CN2CCC2)cc1)c1ccc2nncn2c1 [inhibitor 11],reduction in NanoBRET signal (NLuc-ENL YEATS): minimal reductions in NanoBRET signal
1.34,85.32 ± 3.24%,-0.07,21.6 ± 1.89,1.35 ± 0.117,CC1CCN1Cc1ccc(CNC(=O)c2ccc3nncn3c2)cc1 (centres unmarked) [inhibitor 12],degradation after 2 h incubation in human plasma [1]: approximately 15%; parent compound remaining after 60 min incubation in HLM [3]: about 60%
> 20,97.60 ± 0.74%,0.42,–,–,CC(C)(C)C1CCN1Cc1ccc(CNC(=O)c2ccc3nncn3c2)cc1 (centres unmarked) [inhibitor 14],"inhibition at 64 µM (MOLM-13 cells [8]; Homo sapiens, MOLM-13, 64 μM, 72-h treatment, Figure S8f, read-out: growth inhibition in MOLM-13 cells): ~30%; CLint scaled [3, 10]: 2.42 ± 0.14 mL/min/kg; half-life [3, 11]: 12 ± 0.741 h"
3.26,–,0.29,6.93,4.23 ± 0.603,O=C(NCc1cccc(CN2CCC2)c1)c1ccc2nncn2c1 [inhibitor 15],parent compound remaining after 60 min incubation in HLM [3]: over 90%
–,88.42 ± 4.98%,0.96,9.95,2.92 ± 0.22,O=C(NCc1ccc(CNc2ncc(F)cn2)cc1)c1ccc2nncn2c1 [inhibitor 24],degradation after 2 h incubation in human plasma [1]: approximately 15%
